Data on 6 compounds can be found in US20180186815A1, “PHARMACEUTICAL COMPOSITIONS, METHODS FOR THEIR PREPARATION AND THEIR USE IN THE TREATMENT OF CANCER” (Urifer Ltd., priority 2016, published 2018).

Holding throughout (format): cell-based
The test system of data set [1] is colon cancer cell line HCT 116. Briefly: Growth profile / viability of HCT116 colon cancer cells, XTT test. Particulars: Homo sapiens, HCT-116, 96 h, Control DMSO = 100%, read-out: percentage of viable cells, HCT116. How it is done:
(§1) The effect of the compounds Z522-XXX on the growth profile of cancer cells which express Fer was tested. The cells that were tested were: the colon cancer cell lines HT29 and HCT 116, RKO. The effect of each of the compounds on FS cells, a non malingnant fibroblastic cell line, was also studied.
(§2) Generally, cells were seeded in 96 wells microplates and were left to grow untreated overnight. Each of the compounds was dissolved in DMSO and was then added to each well in a final concentration of 5 μM. The concentration of DMSO in each well was 0.4% v/v. Untreated cells and cells subjected to 0.4% DMSO alone, served as controls. The percentage of viable cells in each well was determined 96 hours after compounds addition, using the XTT test (Berridge, M. V. et al, 2005).

Data set [2] can be described thus: Viability of FS non malignant fibroblastic cells, XTT test. The following applies: FS cells (non-malignant fibroblastic cell line), Control DMSO = 100%, read-out: percentage of viable cells, FS. The protocol: as §1, §2
Data set [3] has as its system colon cancer cell line HT29. Briefly: Growth profile / viability of HT29 colon cancer cells, XTT test. Particulars: Homo sapiens, HT-29, 96 h, Control DMSO = 100%, read-out: percentage of viable cells, HT29. The protocol:
as §1, §2

In data set [4] the test system is colon cancer cell line RKO. As to the kind of experiment: Growth profile / viability of RKO colon cancer cells, XTT test. The following applies: 96 h, Control DMSO = 100%, read-out: percentage of viable cells, RKO. How it is done:
as §1, §2

Read-outs that look alike come from different tables or passages of the source.

Take `CN1CCN(C(=O)C2CCN(c3nn4cc(-c5ccc(N6CCSCC6)cc5)nc4s3)CC2)CC1` [Compound Z522-0164, 2-{4-[(4-methylpiperazin-1-yl)carbonyl]-piperidin-1-yl}-6-(4-thiomorpholin-4-ylphenyl)-imidazo[2,1-b]-[1,3,4]thiadiazole]: the viability at 5 µM in data set [1] (first HCT116 column) came to 80%; in data set [1] (second HCT116 column) it was 97%; in data set [3] (first HT29 column), 50%; in data set [3] (second HT29 column), 42%; in data set [4] (first RKO column), 60%; in data set [4] (second RKO column), 63%. The results for the viability at 96 h, 5 µM in data set [2] (first FS column) and in data set [2] (second FS column) were 104% and 95%, respectively.
Turning to `CC1CCCN(c2ccc(-c3cn4nc(N5CCC(C(=O)N6CCN(C)CC6)CC5)sc4n3)cc2)C1` (stereo not drawn) [Compound Z522-0166, 2-{4-[(4-methylpiperazin-1-yl)carbonyl]-piperidin-1-yl}-6-[4-(3-methyl-piperidin-1-yl)-phenyl]imidazo[2,1-b][1,3,4]-thiadiazole], the viability at 5 µM came out at 30% in data set [1] (first HCT116 column); 23% in data set [1] (second HCT116 column); 4% in data set [3] (first HT29 column); 4% in data set [3] (second HT29 column); 6% in data set [4] (first RKO column); 6% in data set [4] (second RKO column). Also, the viability at 96 h, 5 µM in data set [2] (first FS column) came to 101%; in data set [2] (second FS column), 92%.
For `CN1CCN(C(=O)C2CCN(c3nn4cc(-c5ccc(-n6cccn6)cc5)nc4s3)CC2)CC1` [Compound Z522-0167, 2-{4-[(4-methyl-piperazin-1-yl)-carbonyl]piperidin-1-yl}-6-[4-(1H-pyrazol-1-yl)-phenyl]imidazo[2,1-b][1,3,4]-thiadiazole], the viability at 5 µM came to 94% in data set [1] (first HCT116 column); 83% in data set [1] (second HCT116 column); 87% in data set [3] (first HT29 column); 86% in data set [3] (second HT29 column); 36% in data set [4] (first RKO column); 47% in data set [4] (second RKO column). The values for the viability at 96 h, 5 µM in data set [2] (first FS column) and in data set [2] (second FS column) were 96% and 92%, respectively.
As for `CC1CCN(c2ccc(-c3cn4nc(N5CCC(C(=O)N6CCN(C)CC6)CC5)sc4n3)cc2)CC1` [Compound Z522-0170, 2-{4-[(4-methyl-piperazin-1-yl)carbonyl]piperidin-1-yl}-6-[4-(4-methylpiperidin-1-yl)phenyl]-imidazo[2,1-b]-[1,3,4]thiadiazole], the viability at 5 µM in data set [1] (first HCT116 column) came out at 2%; in data set [1] (second HCT116 column) it was 3%; in data set [3] (first HT29 column), 5%; in data set [3] (second HT29 column), 2%; in data set [4] (first RKO column), 3%; in data set [4] (second RKO column), 4%. For the same compound, the viability at 96 h, 5 µM in data set [2] (first FS column) was found to be 90%; in data set [2] (second FS column), 68%.
Take `CC(C)N1CCN(c2ccc(-c3cn4nc(N5CCC(C(=O)N6CCN(C)CC6)CC5)sc4n3)cc2)CC1` [Compound Z522-0174, 6-[4-(4-isopropyl-piperazin-1-yl)-phenyl]-2-{4-[(4-methylpiperazin-1-yl)carbonyl]-piperidin-1-yl}-imidazo[2,1-b]-[1,3,4]thiadiazole]: the viability at 5 µM in data set [1] (first HCT116 column) came out at 105%; in data set [1] (second HCT116 column) it was 124%; in data set [3] (first HT29 column), 77%; in data set [3] (second HT29 column), 78%; in data set [4] (first RKO column), 93%; in data set [4] (second RKO column) it was 97%. Also, the figures for the viability at 96 h, 5 µM in data set [2] (first FS column) and in data set [2] (second FS column) were 117% and 113%, respectively.
Take `CN1CCN(C(=O)C2CCN(c3nn4cc(-c5ccc(N6CCOCC6)cc5)nc4s3)CC2)CC1` [Compound Z522-0176, 2-{4-[(4-methyl-piperazin-1-yl)-carbonyl]piperidin-1-yl}-6-(4-morpholin-4-yl-phenyl)imidazo[2,1-b][1,3,4]-thiadiazole]: the viability at 5 µM in data set [1] (first HCT116 column) was 109%; in data set [1] (second HCT116 column) it was 116%; in data set [3] (first HT29 column), 112%; in data set [3] (second HT29 column) it was 112%; in data set [4] (first RKO column), 92%; in data set [4] (second RKO column), 89%. Further, the viability at 96 h, 5 µM in data set [2] (first FS column) stood at 103%; in data set [2] (second FS column), 100%.
